Results reported in EP0158267A2, “Pharmaceutical composition containing 5-(2-fluorophenyl)-1,3-dihydro-3-hydroxy-7-nitro- or 5-(2-fluorophenyl)-1,3-dihydro-3-hydroxy-1-methyl-7-nitro-2H-1,4-benzodiazepin-2-one and process for their preparation” (Dolorgiet Beteiligungs-GmbH, priority 1984, dated 1985).

Experiments:
[1] = Acute toxicity, oral, 7 days observation (Litchfield and Wilcoxon); format: in vivo, Maus; conditions: in vivo; mouse, oral, 7 days observation; * = highest technically applicable dose; read-out: Akute Toxi-zität LD50 mg/kg KG. Maus oral
Excerpt: (§1) Für diesen Versuch wurden je 10 männliche und weibliche Mäuse verwendet. Die Testsubstanzen wurden als Suspension in wässriger Carboxymethylcellulose per Magensonde verabreicht. Die Beobachtungszeit betrug 7 Tage. Die Ergebnisse wurden nach der Methode von G.T. Litchfield und F.G. Wilcoxon (J. Pharmacol. Exp. Ther. 96, 1949, 99) errechnet. Die Ergebnisse sind in der nachfolgenden Tabelle zusammengestellt.

[2] = tested on: Maus; assay: as above; format: in vivo; conditions: for Zustand nach 24 h: mouse, oral, condition of animals 24 h after dosing; for Toxizität / Zustand der überlebenden Tiere: statement in words; for Zustand der überlebenden Tiere: findings above the dose without findings
Excerpt: as §1

[3] = tested on: Maus; assay: Prolongation of hexobarbital sleeping time (barbiturate narcosis, method of Fujimoto et al.); format: in vivo; conditions: for Verlängerung der Schlaf-zeit in % bei der Maus nach peroraler Gabe von 1mg/kg KG.: mouse, 1 mg/kg p.o., 30 min before 80 mg/kg hexobarbital i.v., versus control group; for schlafverlängernde Wirkung: statement in words
Procedure: (1) Verlängerung der Schlafzeit
Die Wirkung auf die Barbiturat-Narkose wurde in der Versuchsanordnung von J.M. Fujimoto et al. (J. Pharmacol. Exp. Ther. 129, 1960, 139) nachgewiesen. Gruppen von jeweils 10 männlichen Mäusen wurden die Testsubstanzen als Suspension in wässriger Carboxymethylcellulose mittels einer Stahlsonde auf oralem Weg direkt in den Magen verabreicht. 30 Minuten später wurde den Tieren 80 mg/kg Hexobarbital in eine Schwanzvene injiziert. Es wurde die Dauer des Schlafs gemessen und aus den Schlafzeiten der einzelnen Tiere der Kontroll-und Dosisgruppen die jeweiligen Mittelwerte berechnet. Die Verlängerung der Schlafzeit wurde in Prozent gegenüber der Kontrollgruppe berechnet.

[4] = Sleep induction (onset), no method described; format: in vivo; conditions: statement in words
[5] = tested on: Maus; assay: Fighting test: inhibition of current-induced fighting (method of Tedeschi et al.); format: in vivo; conditions: statement in words; for tranquillisierende Wirkung im Kampftest: DP 327 compared with Flunitrazepam
Excerpt: Die Hemmwirkung gegenüber strominduzierter Kampfhandlungen bei Mäusen wurde in der Versuchsanordnung von R. Tedeschi et al. (J. Pharmacol. Exp. Ther. 125, 1959, 28) ermittelt. 10 Paare weiblicher Mäuse werden am Vortag des Versuches 3 Minuten elektrischen Stromstößen von 3,5 mA, 5 Hz und 5 msec ausgesetzt. Am Versuchstag werden die Testsubstanzen als Suspension in wässriger Carboxymethylcellulose mittels Magensonde peroral verabreicht. 30 Minuten nach der Verabreichung werden jeweils ein Paar in einem Testkäfig wieder den Stromstößen ausgesetzt und die innerhalb von 3 Minuten ausgelösten Kampfhandlungen gezählt. Die Zahl der Kampfhandlungen der jeweiligen Dosisgruppen werden addiert und in Prozent gegenüber der Kontrollgruppe berechnet. Der ED50-Wert wurde mittels halblogarithmischer Regression aus den Dosis-Wirkungsbeziehungen bestimmt.

[6] = DP 327 compared with Flunitrazepam, Beispiel 12 of DE-OS 14 45 873 compared with DP 327

| Structure (SMILES) | LD50 at 168 h [1] [mg/kg] | Zustand nach 24 h [2] | Toxizität [2] | Verlängerung der Schlaf-zeit in % bei der Maus nach peroraler Gabe von 1mg/kg KG. [3] [%] | schlafverlängernde Wirkung [3, 6] | Schlafinduktion [4] | Zustand der überlebenden Tiere [2] | tranquillisierende Wirkung ([5]; compared with Lormetazepam) | tranquillisierende Wirkung im Kampftest [5] | Toxizität ([2]; compared with Lormetazepam) | Todesfälle ([2]; up to the highest applicable dose of 8687 mg/kg) | schlafverlängernde Wirkung ([3]; compared with Lormetazepam) |
| --- | --- | --- | --- | --- | --- | --- | --- | --- | --- | --- | --- | --- |
| CN1C(=O)C(O)N=C(c2ccccc2)c2cc([N+](=O)[O-])ccc21 (centres unmarked) [DE-OS 14 45 873 Beispiel 12, reference compound] | 4700 | bis 3200 mg/kg ohne Befund; ab 3200 mg/kg starke Sedierung, Koma. | toxischer als DP 327 | 99 | geringerer schlafverlängernder Wirkung | – | – | – | – | – | – | – |
| CN1C(=O)C(O)N=C(c2ccccc2Cl)c2cc(Cl)ccc21 (centres unmarked) [Lormetazepam, 7-Chlor-5-(2-chlorphenyl)-1,3-dihydro-3-hydroxy-1-methyl-2H-1,4-benzodiazepin-2-on, reference compound] | 6300 | 900-1240 mg/kg leichte Sedierung; ab 1700 mg/kg zunehmend starke Sedierung. | – | 78 | – | fehlt | – | – | – | – | – | – |
| CN1C(=O)CN=C(c2ccccc2F)c2cc([N+](=O)[O-])ccc21 [Flunitrazepam, 5-(2-Fluorphenyl)-1,3-dihydro-1-methyl-7-nitro-2H-1,4-benzodiazepin-2-on, reference compound] | 2700 | bis 1100 mg/kg ohne Befund; ab 1100 mg/kg starke Sedierung, Koma, Stereotypie. | – | 179 | – | langsam einsetzt | von starker Sedierung und Stereotypie bis zum Koma | – | – | – | – | – |
| CN1C(=O)C(O)N=C(c2ccccc2F)c2cc([N+](=O)[O-])ccc21 (centres unmarked) [DP 327, 5-(2-Fluorphenyl)-1,3-dihydro-3-hydroxy-1-methyl-7-nitro-2H-1,4-benzodiazepin-2-on] | > 8690 | bis 3600 mg/kg ohne Befund; 4824-8687 mg/kg leichte Sedierung. | sehr wenig toxisch | 156 | gleichwertig | rasche Schlafinduktion | nur eine leichte Sedierung und Stereotypie | deutlich überlegen | etwa doppelt so starke tranquillisierende Wirkung | deutlich überlegen | nur vereinzelt Todesfälle | deutlich überlegen |
| O=C1Nc2ccc([N+](=O)[O-])cc2C(c2ccccc2F)=NC1O (centres unmarked) [DP 370, 5-(2-Fluorphenyl)-1,3-dihydro-3-hydroxy-7-nitro-2H-1,4-benzodiazepin-2-on] | > 10000 | bis 4640 mg/kg ohne Befund; ab 4640 mg/kg leichte Sedierung Sedierung, und Ataxie. | wesentlich geringeren Toxizität als die genannten Vergleichssubstanzen | 118 | gute schlafverlängerde Wirkung | – | – | – | gute tranquillisierende | – | – | – |
